Measurements taken from ChEMBL document CHEMBL4339226, “Novel Compounds Targeting the RNA-Binding Protein HuR. Structure-Based Design, Synthesis, and Interaction Studies” (ACS Med Chem Lett, 2019).
Calls of active or inactive are those of the source. The rule behind the calls is not given here.

How the values were obtained:
[1] = target: ELAV-like protein 1 (Homo sapiens) (UniProt Q15717); assay: Binding affinity to HuR (unknown origin) assessed as absolute STD percentage for ring A moiety by 1H-STD-NMR spectroscopic analysis
Chain of ELAV-like protein 1 (Homo sapiens) (Q15717 whole entry): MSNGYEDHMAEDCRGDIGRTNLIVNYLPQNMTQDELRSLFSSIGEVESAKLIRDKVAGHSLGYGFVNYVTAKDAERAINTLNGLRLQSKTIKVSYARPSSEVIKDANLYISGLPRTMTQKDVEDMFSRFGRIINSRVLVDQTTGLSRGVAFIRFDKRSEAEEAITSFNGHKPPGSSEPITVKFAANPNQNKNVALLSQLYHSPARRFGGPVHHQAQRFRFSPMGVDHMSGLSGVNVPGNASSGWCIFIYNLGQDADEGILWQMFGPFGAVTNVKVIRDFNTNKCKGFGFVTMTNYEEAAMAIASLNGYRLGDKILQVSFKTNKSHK

[2] = target: ELAV-like protein 1 (Homo sapiens) (UniProt Q15717); assay: Binding affinity to HuR (unknown origin) assessed as absolute STD percentage for protons of the amino chain (H14, H15, and H16) by 1H-STD-NMR spectroscopic analysis
[3] = target: ELAV-like protein 1 (Homo sapiens) (UniProt Q15717); assay: Binding affinity to HuR (unknown origin) assessed as absolute STD percentage for isopropyl moiety by 1H-STD-NMR spectroscopic analysis
[4] = target: ELAV-like protein 1 (Homo sapiens) (UniProt Q15717); assay: Binding affinity to HuR (unknown origin) assessed as absolute STD percentage for ring B moiety by 1H-STD-NMR spectroscopic analysis
[5] = target: ELAV-like protein 1 (Homo sapiens) (UniProt Q15717); assay: Binding affinity to HuR (unknown origin) assessed as absolute STD percentage for ring C moiety by 1H-STD-NMR spectroscopic analysis
[6] = Solubility of the compound; type: physicochemical
[7] = target: ELAV-like protein 1 (Homo sapiens) (UniProt Q15717); assay: Binding affinity to HuR (unknown origin) assessed as absolute STD percentage for pyridone moiety by 1H-STD-NMR spectroscopic analysis

| SMILES | Activity [1] [%] | Activity [2] | Activity [3] [%] | Activity [4] [%] | Activity [5] [%] | solubility [6] | Activity [7] [%] |
| --- | --- | --- | --- | --- | --- | --- | --- |
| COc1cc(OC)cc([C@@H]2[C@@H](C(=O)NCCNCc3ccccc3)CCC(=O)N2CC(C)C)c1 (racemic) | 0.2 | inactive | 0.4 | 0.03 | – | – | – |
| O=C(c1ccc(O)cc1)N(CCc1cc(O)cc(O)c1)Cc1cccc(Cl)c1 | 0.4 | – | – | 0.36 | 0.25 | – | – |
| COc1cc(OC)cc(-c2nc3sccn3c2NCCNC(=O)OCc2ccccc2)c1.Cl | – | – | – | – | – | Insoluble | – |
| CC(C)Cn1cnc(-c2cccc(Oc3ccccc3)c2)c1-c1ccc(=O)[nH]c1 | – | – | 0.3 | – | – | – | 1.2 |
